Results from PubChem BioAssay (NCI).
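GI50 is the concentration that inhibits growth by half. TGI marks complete inhibition of growth.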

Legend:
Experiment in all cases: growth of human tumour cells (NCI), 384-well format
HCT-116 colon = test system: HCT-116 colon
SK-MEL-28 melanoma = test system: SK-MEL-28 melanoma
ACHN renal = test system: ACHN renal
TK-10 renal = test system: TK-10 renal
HS 578T breast = test system: HS 578T breast
OVCAR-5 ovarian = test system: OVCAR-5 ovarian
K-562 leukemia = test system: K-562 leukemia
OVCAR-3 ovarian = test system: OVCAR-3 ovarian
SNB-75 CNS = test system: SNB-75 CNS
RXF 393 renal = test system: RXF 393 renal
EKVX NSCLC = test system: EKVX NSCLC
HOP-62 NSCLC = test system: HOP-62 NSCLC
SK-MEL-2 melanoma = test system: SK-MEL-2 melanoma
HCT-15 colon = test system: HCT-15 colon
SN12C renal = test system: SN12C renal
SR leukemia = test system: SR leukemia
SF-295 CNS = test system: SF-295 CNS
HCC-2998 colon = test system: HCC-2998 colon
LOX IMVI melanoma = test system: LOX IMVI melanoma
A498 renal = test system: A498 renal
UO-31 renal = test system: UO-31 renal
MALME-3M melanoma = test system: MALME-3M melanoma
KM12 colon = test system: KM12 colon
NCI-H522 lung = test system: NCI-H522 lung
NCI-H322M lung = test system: NCI-H322M lung
SK-MEL-5 melanoma = test system: SK-MEL-5 melanoma
HL-60(TB) leukemia = test system: HL-60(TB) leukemia
MDA-MB-435 melanoma = test system: MDA-MB-435 melanoma
RPMI-8226 leukemia = test system: RPMI-8226 leukemia
NCI/ADR-RES ovarian = test system: NCI/ADR-RES ovarian
PC-3 prostate = test system: PC-3 prostate
NCI-H226 lung = test system: NCI-H226 lung
MOLT-4 leukemia = test system: MOLT-4 leukemia
MDA-MB-468 breast = test system: MDA-MB-468 breast
SF-539 CNS = test system: SF-539 CNS
UACC-62 melanoma = test system: UACC-62 melanoma
SNB-19 CNS = test system: SNB-19 CNS
COLO 205 colon = test system: COLO 205 colon
CAKI-1 renal = test system: CAKI-1 renal
SK-OV-3 ovarian = test system: SK-OV-3 ovarian
OVCAR-4 ovarian = test system: OVCAR-4 ovarian
NCI-H460 NSCLC = test system: NCI-H460 NSCLC
MCF7 breast = test system: MCF7 breast
NCI-H23 lung = test system: NCI-H23 lung
UACC-257 melanoma = test system: UACC-257 melanoma
U251 glioblastoma = test system: U251 glioblastoma
SW-620 colon = test system: SW-620 colon
A549 NSCLC = test system: A549 NSCLC
CCRF-CEM leukemia = test system: CCRF-CEM leukemia
BT-549 breast = test system: BT-549 breast
M14 melanoma = test system: M14 melanoma
DU-145 prostate = test system: DU-145 prostate
MDA-MB-231 breast = test system: MDA-MB-231 breast
SF-268 CNS = test system: SF-268 CNS
HOP-92 NSCLC = test system: HOP-92 NSCLC
T-47D breast = test system: T-47D breast
786-0 renal = test system: 786-0 renal
OVCAR-8 ovarian = test system: OVCAR-8 ovarian
IGROV1 ovarian = test system: IGROV1 ovarian

Question: For CCN1CCN(Cc2ccc(Nc3ncc(F)c(-c4cc(F)c5nc(C)n(C(C)C)c5c4)n3)nc2)CC1, which GI50 (HCT-116 colon) is on record?
Answer: 0.392 µM

Question: And the TGI (HCT-116 colon)?
Answer: 1.87 µM

Question: And the GI50 (SK-MEL-28 melanoma)?
Answer: 1.85 µM

Question: And the TGI (SK-MEL-28 melanoma)?
Answer: > 33.3 µM

Question: What about the GI50 (ACHN renal) of the same compound?
Answer: 0.39 µM

Question: What about the TGI (ACHN renal) of the same compound?
Answer: 10.6 µM

Question: What about the GI50 (TK-10 renal) of the same compound?
Answer: 0.803 µM

Question: And the TGI (TK-10 renal)?
Answer: > 27.6 µM

Question: What about the GI50 (HS 578T breast) of the same compound?
Answer: 2.43 µM

Question: What about the TGI (HS 578T breast) of the same compound?
Answer: 19.4 µM

Question: What about the GI50 (OVCAR-5 ovarian) of the same compound?
Answer: 0.944 µM

Question: What about the TGI (OVCAR-5 ovarian) of the same compound?
Answer: > 68.3 µM

Question: What about the GI50 (K-562 leukemia) of the same compound?
Answer: 1.11 µM

Question: What about the TGI (K-562 leukemia) of the same compound?
Answer: 2.32 µM

Question: And the GI50 (OVCAR-3 ovarian)?
Answer: 4.21 µM

Question: What about the TGI (OVCAR-3 ovarian) of the same compound?
Answer: > 29.3 µM

Question: What about the GI50 (SNB-75 CNS) of the same compound?
Answer: 0.708 µM

Question: What about the TGI (SNB-75 CNS) of the same compound?
Answer: 10.6 µM

Question: And the GI50 (RXF 393 renal)?
Answer: 5.84 µM

Question: What about the TGI (RXF 393 renal) of the same compound?
Answer: 11.6 µM

Question: And the GI50 (EKVX NSCLC)?
Answer: 18 µM

Question: And the TGI (EKVX NSCLC)?
Answer: > 62 µM

Question: And the GI50 (HOP-62 NSCLC)?
Answer: 8.44 µM

Question: And the TGI (HOP-62 NSCLC)?
Answer: > 56.8 µM

Question: What about the GI50 (SK-MEL-2 melanoma) of the same compound?
Answer: 16.8 µM

Question: What about the TGI (SK-MEL-2 melanoma) of the same compound?
Answer: 30.5 µM

Question: What about the GI50 (HCT-15 colon) of the same compound?
Answer: 0.531 µM

Question: And the TGI (HCT-15 colon)?
Answer: 7.24 µM

Question: What about the GI50 (SN12C renal) of the same compound?
Answer: 6.7 µM

Question: And the TGI (SN12C renal)?
Answer: > 32.9 µM

Question: And the GI50 (SR leukemia)?
Answer: 0.0577 µM

Question: What about the TGI (SR leukemia) of the same compound?
Answer: 0.267 µM

Question: What about the GI50 (SF-295 CNS) of the same compound?
Answer: 6.95 µM

Question: What about the TGI (SF-295 CNS) of the same compound?
Answer: > 34.2 µM

Question: What about the GI50 (HCC-2998 colon) of the same compound?
Answer: 4.45 µM

Question: And the GI50 (LOX IMVI melanoma)?
Answer: 0.372 µM

Question: What about the TGI (LOX IMVI melanoma) of the same compound?
Answer: 7.23 µM

Question: And the GI50 (A498 renal)?
Answer: 0.312 µM

Question: And the TGI (A498 renal)?
Answer: 1.47 µM

Question: What about the GI50 (UO-31 renal) of the same compound?
Answer: 0.362 µM

Question: And the TGI (UO-31 renal)?
Answer: > 19.1 µM

Question: And the GI50 (MALME-3M melanoma)?
Answer: 3.43 µM

Question: What about the TGI (MALME-3M melanoma) of the same compound?
Answer: 13.6 µM

Question: And the GI50 (KM12 colon)?
Answer: 0.485 µM

Question: And the TGI (KM12 colon)?
Answer: 6.5 µM

Question: What about the GI50 (NCI-H522 lung) of the same compound?
Answer: 9.54 µM

Question: What about the TGI (NCI-H522 lung) of the same compound?
Answer: > 33.1 µM

Question: What about the GI50 (NCI-H322M lung) of the same compound?
Answer: 1.16 µM

Question: What about the TGI (NCI-H322M lung) of the same compound?
Answer: 15.2 µM

Question: And the GI50 (SK-MEL-5 melanoma)?
Answer: 0.26 µM

Question: What about the TGI (SK-MEL-5 melanoma) of the same compound?
Answer: > 23.3 µM

Question: What about the GI50 (HL-60(TB) leukemia) of the same compound?
Answer: 0.386 µM

Question: And the TGI (HL-60(TB) leukemia)?
Answer: 6.82 µM

Question: What about the GI50 (MDA-MB-435 melanoma) of the same compound?
Answer: > 15.5 µM

Question: And the TGI (MDA-MB-435 melanoma)?
Answer: > 52.4 µM

Question: What about the GI50 (RPMI-8226 leukemia) of the same compound?
Answer: 1.42 µM

Question: What about the TGI (RPMI-8226 leukemia) of the same compound?
Answer: 8.38 µM

Question: What about the GI50 (NCI/ADR-RES ovarian) of the same compound?
Answer: > 60.9 µM

Question: What about the TGI (NCI/ADR-RES ovarian) of the same compound?
Answer: > 100 µM

Question: And the GI50 (PC-3 prostate)?
Answer: 1.49 µM

Question: And the TGI (PC-3 prostate)?
Answer: > 31.9 µM

Question: What about the GI50 (NCI-H226 lung) of the same compound?
Answer: 0.56 µM

Question: What about the TGI (NCI-H226 lung) of the same compound?
Answer: 23 µM

Question: What about the GI50 (MOLT-4 leukemia) of the same compound?
Answer: 0.127 µM

Question: What about the TGI (MOLT-4 leukemia) of the same compound?
Answer: 0.981 µM

Question: What about the GI50 (MDA-MB-468 breast) of the same compound?
Answer: 1.18 µM

Question: And the TGI (MDA-MB-468 breast)?
Answer: > 25.7 µM

Question: What about the GI50 (SF-539 CNS) of the same compound?
Answer: 1.26 µM

Question: And the TGI (SF-539 CNS)?
Answer: 2.53 µM

Question: What about the GI50 (UACC-62 melanoma) of the same compound?
Answer: 2.4 µM

Question: What about the TGI (UACC-62 melanoma) of the same compound?
Answer: > 26.9 µM

Question: What about the GI50 (SNB-19 CNS) of the same compound?
Answer: 16 µM

Question: And the TGI (SNB-19 CNS)?
Answer: > 33.6 µM

Question: And the GI50 (COLO 205 colon)?
Answer: 0.447 µM

Question: What about the TGI (COLO 205 colon) of the same compound?
Answer: > 55.9 µM

Question: And the GI50 (CAKI-1 renal)?
Answer: 0.285 µM

Question: What about the TGI (CAKI-1 renal) of the same compound?
Answer: 14 µM

Question: What about the GI50 (SK-OV-3 ovarian) of the same compound?
Answer: 3.31 µM

Question: What about the TGI (SK-OV-3 ovarian) of the same compound?
Answer: > 32 µM

Question: And the TGI (OVCAR-4 ovarian)?
Answer: > 19.6 µM

Question: What about the GI50 (NCI-H460 NSCLC) of the same compound?
Answer: 0.387 µM

Question: And the TGI (NCI-H460 NSCLC)?
Answer: 1.82 µM

Question: And the GI50 (MCF7 breast)?
Answer: 0.395 µM

Question: And the TGI (MCF7 breast)?
Answer: 6.59 µM

Question: What about the GI50 (NCI-H23 lung) of the same compound?
Answer: 1.74 µM

Question: And the TGI (NCI-H23 lung)?
Answer: 7.68 µM

Question: What about the GI50 (UACC-257 melanoma) of the same compound?
Answer: 4.74 µM

Question: What about the TGI (UACC-257 melanoma) of the same compound?
Answer: > 32.1 µM

Question: And the GI50 (U251 glioblastoma)?
Answer: 2.87 µM

Question: What about the TGI (U251 glioblastoma) of the same compound?
Answer: > 29.6 µM

Question: What about the GI50 (SW-620 colon) of the same compound?
Answer: 0.366 µM

Question: And the TGI (SW-620 colon)?
Answer: 1.81 µM

Question: What about the GI50 (A549 NSCLC) of the same compound?
Answer: 2.12 µM

Question: What about the TGI (A549 NSCLC) of the same compound?
Answer: 7.52 µM

Question: And the GI50 (CCRF-CEM leukemia)?
Answer: 0.33 µM

Question: And the TGI (CCRF-CEM leukemia)?
Answer: 4.39 µM

Question: What about the GI50 (BT-549 breast) of the same compound?
Answer: 0.917 µM

Question: What about the TGI (BT-549 breast) of the same compound?
Answer: 16.5 µM

Question: What about the GI50 (M14 melanoma) of the same compound?
Answer: 0.684 µM

Question: And the TGI (M14 melanoma)?
Answer: > 28 µM

Question: What about the GI50 (DU-145 prostate) of the same compound?
Answer: 1.84 µM

Question: What about the TGI (DU-145 prostate) of the same compound?
Answer: 9.15 µM

Question: And the GI50 (MDA-MB-231 breast)?
Answer: 0.749 µM

Question: What about the GI50 (SF-268 CNS) of the same compound?
Answer: 2 µM

Question: What about the TGI (SF-268 CNS) of the same compound?
Answer: 19 µM

Question: And the GI50 (HOP-92 NSCLC)?
Answer: > 81.8 µM

Question: What about the TGI (HOP-92 NSCLC) of the same compound?
Answer: > 100 µM

Question: And the GI50 (T-47D breast)?
Answer: 23.7 µM

Question: And the TGI (T-47D breast)?
Answer: > 68.5 µM

Question: And the GI50 ([…]-0 renal)?
Answer: 1.27 µM

Question: And the TGI (786-0 renal)?
Answer: 7.97 µM

Question: And the GI50 (OVCAR-8 ovarian)?
Answer: 24.3 µM

Question: What about the TGI (OVCAR-8 ovarian) of the same compound?
Answer: > 32.4 µM

Question: What about the GI50 (IGROV1 ovarian) of the same compound?
Answer: 4.43 µM

Question: What about the TGI (IGROV1 ovarian) of the same compound?
Answer: > 28.1 µM
